This assay relates to P388 leukemia ip, CD2F1 mice, survival T/C. Briefly: NCI In Vivo Anticancer Drug Screen. Data for tumor model P388 Leukemia (intraperitoneal) in CD2F1 (CDF1) mice. The following applies: endpoint: median survival time, higher = longer survival. Summed up:
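Mice carrying the transplanted tumor received test compound or vehicle. Survival was recorded in each group, and the value is the treated-group measurement divided by that of the vehicle-treated control group.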

Setting [1] is: dose: 50.0 mg/kg/injection, schedule: Q01DX009 (ip), vehicle: saline with Tween-80.
[2] abbreviates: dose: 100.0 mg/kg/injection, schedule: Q01DX009 (ip), vehicle: saline with Tween-80.
The mark [3] stands for this setting: dose: 200.0 mg/kg/injection, schedule: Q01DX009 (ip), vehicle: saline with Tween-80.
[4] abbreviates: dose: 12.5 mg/kg/injection, schedule: Q01DX005 (ip), vehicle: Klucel (hydroxypropylcellulose) (HPC).
Setting [5] is: dose: 50.0 mg/kg/injection, schedule: Q01DX005 (ip), vehicle: Klucel (hydroxypropylcellulose) (HPC).
The mark [6] stands for this setting: dose: 50.0 mg/kg/injection, schedule: Q01DX005 (ip), vehicle: saline.
[7] abbreviates: dose: 100.0 mg/kg/injection, schedule: Q01DX005 (ip), vehicle: saline.
The mark [8] stands for this setting: dose: 200.0 mg/kg/injection, schedule: Q01DX005 (ip), vehicle: saline.
Where [9] appears, read: dose: 60.0 mg/kg/injection, schedule: Q01DX005 (ip), vehicle: saline with Tween-80.
Setting [10] is: dose: 120.0 mg/kg/injection, schedule: Q01DX005 (ip), vehicle: saline with Tween-80.
[11] abbreviates: dose: 240.0 mg/kg/injection, schedule: Q01DX005 (ip), vehicle: saline with Tween-80.
Setting [12] is: dose: 50.0 mg/kg/injection, schedule: Q01DX009 (ip), vehicle: saline.
[13] abbreviates: dose: 50.0 mg/kg/injection, schedule: Q01DX005 (ip), vehicle: saline with Tween-80.

Values joined by “and” are separate entries in the source; they are usually repeats but may differ in a detail not shown here. Equal entries are not always repeated. Inconclusive results and toxic doses are left out.

Consider `CC(C)(C)CC(C)(C)c1ccc(OCc2ccccc2Cl)cc1`, for which the T/C runs as follows: under setting [1], 98 % of control; under setting [2], 95 % of control; under setting [3], 100 % of control.
In the case of `O=C(CC(c1ccccc1)C(C(=O)O)c1ccc(Br)cc1)c1ccccc1` (centres undefined), the T/C was 100 % of control under setting [4]; 90 % of control (dose: 25.0 mg/kg/injection, schedule: Q01DX005 (ip), vehicle: Klucel (hydroxypropylcellulose) (HPC)); 89 % of control under setting [5].
As to `CC(CN1C(=O)CCC1=O)N1C(=O)CCC1=O` (centres undefined), the T/C under setting [6] is 100 % of control, the T/C under setting [7] is 103 % of control and the T/C under setting [8] was 100 % of control.
In the case of `O=C1C2=C(OCCO2)C(=O)C2=C1OCO2`, the T/C was 109 % of control under setting [9], 107 % of control under setting [10] and 88 % of control under setting [11].
For `N#C/C(=N\Nc1ccc(F)cc1)C(=O)C1CC1`, the T/C by setting is: (dose: 15.0 mg/kg/injection, schedule: Q01DX005 (ip), vehicle: Klucel (hydroxypropylcellulose) (HPC)) 100 % of control; (dose: 30.0 mg/kg/injection, schedule: Q01DX005 (ip), vehicle: Klucel (hydroxypropylcellulose) (HPC)) 106 % of control; (dose: 60.0 mg/kg/injection, schedule: Q01DX005 (ip), vehicle: Klucel (hydroxypropylcellulose) (HPC)) 98 % of control.
As for `Nc1ccccc1C(=O)/C=C/c1ccccc1`, the T/C runs as follows: under setting [9], 100 % of control; under setting [10], 100 % of control; under setting [11], 100 % of control.
Consider `COc1cc(C2c3cc(O)c(OC)cc3CC(O)(CO)C2CO)ccc1O` (centres undefined), for which the T/C (dose: 23.75 mg/kg/injection, schedule: Q01DX005 (ip), vehicle: Klucel (hydroxypropylcellulose) (HPC)) is 100 % of control; the T/C (dose: 47.5 mg/kg/injection, schedule: Q01DX005 (ip), vehicle: Klucel (hydroxypropylcellulose) (HPC)) is 95 % of control; the T/C (dose: 95.0 mg/kg/injection, schedule: Q01DX005 (ip), vehicle: Klucel (hydroxypropylcellulose) (HPC)) was 86 % of control; the T/C (dose: 190.0 mg/kg/injection, schedule: Q01DX005 (ip), vehicle: Klucel (hydroxypropylcellulose) (HPC)) was 90 % of control.
Regarding `CN(N=O)C(=O)NNC(=O)N(C)N=O`, the T/C was 105 % of control (dose: 15.0 mg/kg/injection, schedule: Q04DX003 (ip), vehicle: saline with Tween-80); 100 % of control (dose: 30.0 mg/kg/injection, schedule: Q01DX009 (ip), vehicle: saline with Tween-80); 110 % of control (dose: 30.0 mg/kg/injection, schedule: Q04DX003 (ip), vehicle: saline with Tween-80); 109 % of control (dose: 39.6 mg/kg/injection, schedule: Q04DX003 (ip), vehicle: saline with Tween-80); 113 % of control (dose: 60.0 mg/kg/injection, schedule: Q04DX003 (ip), vehicle: saline with Tween-80).
As for `NN1C(=O)C2C3C=CC(O3)C2C1=O` (centres undefined), the T/C under setting [6] was 98 % of control, the T/C under setting [7] is 98 % of control and the T/C under setting [8] was 100 % of control.
As to `c1cc2c(cc1NC1=NCCO1)CCC2`, the T/C is 100 % of control (dose: 6.25 mg/kg/injection, schedule: Q04DX003 (ip), vehicle: saline with Tween-80); 100 % of control (dose: 12.5 mg/kg/injection, schedule: Q04DX003 (ip), vehicle: saline with Tween-80); 100 % of control (dose: 25.0 mg/kg/injection, schedule: Q04DX003 (ip), vehicle: saline with Tween-80).
As to `NS(=O)(=O)c1c[n+]([O-])ccc1Cl`, the T/C runs as follows: under setting [1], 100 % of control; under setting [2], 100 % of control; under setting [3], 100 % of control.
`CCOC(=O)N[C@H]1CCc2cc(OC)c(OC)c(OC)c2-c2ccc(SC)c(=O)cc21`: the T/C is 163 % of control (dose: 0.75 mg/kg/injection, schedule: Q01DX009 (ip), vehicle: other); 172 % of control (dose: 1.5 mg/kg/injection, schedule: Q01DX009 (ip), vehicle: other); 109 % of control and 114 % of control (dose: 3.0 mg/kg/injection, schedule: Q01DX009 (ip), vehicle: other).
For `CN1C(=O)C23SSC1(C)C(=O)N2c1ccccc1C3(C)C` (centres undefined), the T/C was 95 % of control (dose: 12.5 mg/kg/injection, schedule: Q01DX009 (ip), vehicle: suspension in saline); 91 % of control (dose: 25.0 mg/kg/injection, schedule: Q01DX009 (ip), vehicle: suspension in saline); 95 % of control under setting [12].
For `O=C(Nc1ccccc1)OCC1CC1`, the T/C by setting is: under setting [1], 99 % of control; under setting [2], 115 % of control; under setting [3], 96 % of control; (dose: 400.0 mg/kg/injection, schedule: Q01DX009 (ip), vehicle: saline with Tween-80) 89 % of control.
Turning to `CC(Cc1ccccc1)N(C)Cc1ccc(-c2ccc(Cl)cc2)o1` (centres undefined), the T/C was 110 % of control under setting [9], 107 % of control under setting [10] and 107 % of control under setting [11].
Take `CCN(CC)CCNc1ccc(C)c2sc3ccccc3c(=O)c12` (tested in a mixture with another compound): the T/C under setting [12] is 160 % of control; the T/C (dose: 100.0 mg/kg/injection, schedule: Q01DX009 (ip), vehicle: saline) is 185 % of control; the T/C (dose: 200.0 mg/kg/injection, schedule: Q04DX003 (ip), vehicle: saline) was 161 % of control; the T/C (dose: 300.0 mg/kg/injection, schedule: Q04DX003 (ip), vehicle: saline) is 95 % of control.
Turning to `COC(=O)C1c2ccccc2C(C(=O)OC)C(C(=O)OC)C(C(=O)OC)c2ccccc21` (centres undefined), the T/C (dose: 100.0 mg/kg/injection, schedule: Q04DX003 (ip), vehicle: Klucel (hydroxypropylcellulose) (HPC)) was 102 % of control; the T/C (dose: 200.0 mg/kg/injection, schedule: Q04DX003 (ip), vehicle: Klucel (hydroxypropylcellulose) (HPC)) is 102 % of control; the T/C (dose: 400.0 mg/kg/injection, schedule: Q04DX003 (ip), vehicle: Klucel (hydroxypropylcellulose) (HPC)) was 99 % of control.
Consider `C=CCC1(C(C)C(O)c2cc(OC)c(OC)c(OC)c2)CC(OC)C=CC1=O` (centres undefined), for which the T/C (dose: 4.0 mg/kg/injection, schedule: Q01DX009 (ip), vehicle: olive oil, sesame oil, peanut oil) was 116 % of control; the T/C (dose: 8.0 mg/kg/injection, schedule: Q01DX009 (ip), vehicle: olive oil, sesame oil, peanut oil) was 111 % of control; the T/C (dose: 16.0 mg/kg/injection, schedule: Q01DX009 (ip), vehicle: olive oil, sesame oil, peanut oil) was 111 % of control.
`O=C([O-])c1ccccc1[O-].[Cu+2].c1ccc(-c2ccccn2)nc1`: the T/C was 104 % of control (dose: 6.25 mg/kg/injection, schedule: Q01DX005 (ip), vehicle: Klucel (hydroxypropylcellulose) (HPC)) and 113 % of control under setting [4].
Take `COc1ccc(-c2coc3c4c(c(CC=C(C)C)c(OC)c3c2=O)OC(C)(C)C=C4)cc1OC`: the T/C runs as follows: (dose: 12.5 mg/kg/injection, schedule: Q01DX005 (ip), vehicle: saline with Tween-80) 102 % of control; (dose: 25.0 mg/kg/injection, schedule: Q01DX005 (ip), vehicle: saline with Tween-80) 100 % of control; under setting [13], 98 % of control and 91 % of control.
`NC(=O)/C(N=Nc1ccccc1S(=O)(=O)O)=N/Nc1ccccc1S(=O)(=O)O`: the T/C was 100 % of control under setting [5]; 101 % of control and 92 % of control (dose: 100.0 mg/kg/injection, schedule: Q01DX005 (ip), vehicle: Klucel (hydroxypropylcellulose) (HPC)); 101 % of control and 94 % of control (dose: 200.0 mg/kg/injection, schedule: Q01DX005 (ip), vehicle: Klucel (hydroxypropylcellulose) (HPC)).
In the case of `C/C(=N\NC(=S)Nc1nccs1)c1ccc2ccccc2n1`, the T/C is 102 % of control under setting [13]; 100 % of control (dose: 100.0 mg/kg/injection, schedule: Q01DX005 (ip), vehicle: saline with Tween-80); 113 % of control (dose: 200.0 mg/kg/injection, schedule: Q01DX005 (ip), vehicle: saline with Tween-80).
For `COc1cc2c(cc1OC(C)=O)C(=O)CCC=C2`, the T/C runs as follows: (dose: 33.0 mg/kg/injection, schedule: Q04DX003 (ip), vehicle: saline) 100 % of control; (dose: 50.0 mg/kg/injection, schedule: Q04DX003 (ip), vehicle: saline) 104 % of control; (dose: 75.0 mg/kg/injection, schedule: Q04DX003 (ip), vehicle: saline) 112 % of control; (dose: 400.0 mg/kg/injection, schedule: Q04DX003 (ip), vehicle: saline) 120 % of control.
